From US7754751B2, “Preferential inhibition of release of pro-inflammatory cytokines” (Yung Shin Pharmaceutical Ind. Co., Ltd., priority 2004, dated 2010)

Columns and labels:
interleukin-4 = assay: LPS-induced interleukin-4 release in human PBMC; type: cell-based; details: 10 μM compound with LPS 25 μg/ml, 24 h
Protocol: (§1) Approximately 450 ml of blood was obtained from healthy human volunteers and diluted with RPMI 1640 culture medium. A Ficoll gradient (MSL; Eurobio, les Ulis, France) was used to isolate human peripheral blood mononuclear leukocytes (PBMC). The volume ratio of blood, RPMI 1640 culture medium, and MSL was 2:4:1. PBMC were obtained by centrifuging the diluted blood at 500 g at 15° C. for 20 min and washed once with RPMI 1640. The cell pellets were resuspended at a final concentration of 6×10^6 cells/ml of the same medium supplemented with 5% heat-inactivated normal human serum (a pool of sera from healthy volunteers) and antibiotics (penicillin 100 UI/ml and streptomycin 100 μg/ml). Aliquots of 500 μl of the cell suspension were dispensed into each well of a 24-well plate and incubated at 37° C. in a 5% CO2-95% air incubator in a humidified atmosphere. To wells were added lipopolysaccharide (LPS, 25 μg/ml) from smooth E. Coli 0111:B4 alone or LPS and Compound 1 (10 μM) together. After 24 h, the supernatants were collected, centrifuged at 400 g for 10 min at 15° C. and stored at −20° C. Cytokines were assayed using commercial kits manufactured by R & D Systems (Abingdon, UK). The concentrations of the cytokines were determined using an internal standard according to the manufacturer's instructions.

TNF-α = assay: LPS-induced TNF-α release in human PBMC; type: cell-based; details: 10 μM compound with LPS 25 μg/ml, 24 h
Protocol: as §1

interleukin 8 = assay: LPS-induced interleukin 8 release in human PBMC; type: cell-based; details: 10 μM compound with LPS 25 μg/ml, 24 h
Protocol: as §1

interferon-γ = assay: LPS-induced interferon-γ release in human PBMC; type: cell-based; details: 10 μM compound with LPS 25 μg/ml, 24 h
Protocol: as §1

interleukin 1β = assay: LPS-induced interleukin 1β release in human PBMC; type: cell-based; details: 10 μM compound with LPS 25 μg/ml, 24 h
Protocol: as §1

interleukin-10 = assay: LPS-induced interleukin-10 release in human PBMC; type: cell-based; details: 10 μM compound with LPS 25 μg/ml, 24 h
Protocol: as §1

interleukin-2 = assay: LPS-induced interleukin-2 release in human PBMC; type: cell-based; details: 10 μM compound with LPS 25 μg/ml, 24 h
Protocol: as §1

NF-κB = NF-κB DNA binding activity in tissue nuclear extracts of LPS-treated mice (EMSA, ELISA-based Trans-AM p65 kit); type: in vivo; details: ICR mice, LPS 60 mg/kg i.p., compound 10 mg/kg orally in 0.5% carboxymethyl cellulose; lung, spleen, kidney extracts
Protocol: Mice (25-30 g, ICR strain) were injected intraperitoneally with LPS (60 mg/kg). Most of them were orally treated with Compound 1 (10 mg/kg) in 0.5% carboxymethyl cellulose, and the rest (control mice) were orally treated with vehicle. The control mice died within 27 h after the LPS administration. The mice were euthanatized with intraperitoneal administration of pentobarbital at various time intervals after the LPS administration. Nuclear extracts of lung, spleen, and kidney tissues were prepared by a standard method. NF-κB DNA binding activity was assessed by an electrophoretic mobility shift assay according to a procedure described in Pan et al., J Biomed Sci. 2002, 9: 622-630. […] The sample was then charged to native 5% polyacrylamide gels and analyzed by autoradiography. […] NF-κB DNA binding activity was also assessed with ELISA-based Trans-AM NF-κB p65 transcription factor assay kits (Active Motif Europe, […], Belgium) according to the manufacturer's instructions. […] Specificity of NF-κB activation was determined by competition experiments using NF-κB wild-type and mutant consensus oligonucleotides that were provided with the kit.

OCc1ccc(-c2nn(Cc3ccccc3)c3ccccc23)o1 [Compound 1, 3-(5′-hydroxymethyl-2′-furyl)-1-benzyl-indazol]
inhibition at 10 µM (interleukin-4): < 10% | inhibition at 10 µM (TNF-α): > 80% | inhibition at 10 µM (interleukin 8): > 80% | inhibition at 10 µM (interferon-γ): > 30% | inhibition at 10 µM (interleukin 1β): > 80% | inhibition at 10 µM (interleukin-10): < 10% | inhibition at 10 µM (interleukin-2): > 30% | NF-κB/DNA complex level induced by LPS (NF-κB): inhibited the increase of the NF-κB/DNA complex level induced by LPS
